The results in this text go back to patent US6365175B1 (Unilever Patent Holdings, priority 1998, dated 2002).

The structures appear in SMILES notation. Entries after “also recorded” stand apart in the source; their conditions may differ.

One assay relates to decorin. Briefly: Dot blot assay for decorin protein in dermal fibroblast conditioned medium. The class given is cell-based, human. The following applies: for Decorin (% of control): fibroblasts, mean ± SD; for decorin levels in fibroblasts: single agent, in words. How it is done:
Primary human foreskin fibroblasts at passage 2 (P2) were seeded into 12-well plates at 10000 cells/cm^2 and maintained for 24 hours in an atmosphere of 5% carbon dioxide and 4% oxygen in Dulbeccos Modified Eagles Medium (DMEM) supplemented with 10% foetal calf serum. After this time the cells were washed with serum free DMEM and then incubated in fresh serum free DMEM for a further 60 hours. The fibroblast monolayers were then washed again with serum free DMEM. […] This fibroblast conditioned medium was either analysed immediatedly or snap frozen in liquid nitrogen and stored at −70° C. for future analysis. The cells were then counted and data from the dot-blot analysis subsequently standardised to cell number.
Samples of conditioned medium from dermal fibroblasts treated with vehicle (as a control) or test reagents were supplemented with 20 mM dithiothreitol (1:10 dilution of 200 mM stock solution) and 0.1% sodium dodecylsulphate (1:100 dilution of 10% stock solution), mixed well and then incubated at 75° C. for 2 minutes. A standard for the assay was generated by serial dilution of neat fibroblast conditioned medium from fibroblasts seeded at 10000 cells/cm^2 in a 175 cm^2 flask and maintained in serum free DMEM as described above. Assay samples were subsequently applied in triplicate to a prewetted sheet of Immobilon-P transfer membrane using the 96-well Bio-Dot Apparatus from Bio-Rad as described in the manufacturers guidelines. Approximately 200 μl of medium was applied per well. The medium was allowed to filter through the membrane under gravity (30 minutes) after which the membrane was washed twice with PBS (200 μl). These PBS washes were allowed to filter through the membrane under gravity (2×15 minutes). The Bio-Dot apparatus was then attached to a vacuum manifold and a third and final PBS wash carried out under suction. The apparatus was disassembled, the membrane removed and quickly cut as required before being placed in blocking buffer overnight at 4° C. Membranes prepared for decorin analysis were blocked with 3% (w/v) bovine serum albumin (BSA)/ 0.1% (v/v) Tween 20 in phosphate buffered saline (PBS), whilst those for procollagen-I analysis were blocked with 5% (w/v) non fat dried milk powder/0.05% Tween 20 in PBS. The following day, the membranes were probed with 1:10000 dilution of primary antibodies to human decorin (rabbit polyclonal; Biogenesis) for 2 hours at room temperature. The membranes were subsequently washed with TBS/0.05% Tween 20 (3×5 minutes) and then incubated with 1:1000 dilution of ^125I-conjugated anti-rat or anti-rabbit F(ab′)2 fragments (Amersham) as required for 1 hour at room temperature. Following this the Immobilon strips were again washed with TBS/Tween 20 (3×5 minutes) before being allowed to dry in air at room temperature. The dried membranes were wrapped in cellophane and exposed to a Molecular Dynamics storage phosphor screen for 16-18 hours. At the end of this time the exposed screen was scanned by a phosphorimager (Molecular Dynamics Phosphorimager SF) using ImageQuant™ software. Dot intensity was assessed by computer-assisted image analysis using the quantification tools in ImageQuant™, standardised to cell number and the effects of various test reagents on decorin and procollagen-I synthesis were determined relative to a vehicle treated control value of 100 arbitrary units.

In assay [1] the test system is intracellular adhesion molecules (ICAM). Briefly: Glutathione (GSH) depletion model in fibroblasts (BSO and PMA), ICAM. The format is cell-based, human. The following applies: BSO and PMA treated fibroblasts, FIG. 3. How it is done: (§1) Primary human foreskin fibroblasts at passage 2 (P2) were seeded into 96-well plates at 10000 cells/well and maintained for 24 hours in an atmosphere of 5% carbon dioxide in Dulbeccos Modified Eagles Medium (DMEM) supplemented with 10% foetal calf serum. […] Phorbal myristate acetate (PMA) in ethanol/cell media ([…]) was added to the media and the cells incubated for a futher 24 hours. PMA represents an external stressor which induces oxidative stress and inflammatory responses in cells. The fibroblasts/media were then analysed as described below immediately or snap frozen in liquid nitrogen and stored at −70° C. for future analysis. The cells were then counted to ensure no effect on cell number.
Media were discarded and cells washed with Dulbecco PBS. To the washed cells, 150 μl 0.1% Triton X-100 (Sigma) was added for 3 minutes to extract ICAM from cell membrane. The extracts were transferred to Eppendoff centrifuge tubes and centrifuged at 1000 g for 2 min to remove cell debris. A volume of 100 μl supernatant was used for ICAM assay. The soluble ICAM-1 was assessed with commercially available immunoenzymometric assay kit (R&D Systems). Concentrations of ICAM-1 in the samples were determined based on parallelly running standard curve.
L-Buthionine sulfoximine (BSO, Sigma), a specific inhibitor of γ-glutamylcysteine synthetase, was used to deplete intracellular GSH levels. This depletion model is based on the natural degradation of GSH while synthesis is inhibited. BSO is added to the fibroblast cell media after 24 hours (0.25 mM), this is predissolved in DMSO (DMSO, final concentration <1%). In addition, where stated, the antioxidants Epigallocatechingallate (ECGC) and Quercetin were also added to the media after 24 h. The former was dissolved directly in the media, quercetin was initially dissolved in ethanol, this was then diluted 500 fold into the media.

In assay [2] the test system is Prostaglandin E2 (PGE2) production. Description: PMA-induced PGE2 production, fibroblast cell assay. The following applies: FIG. 1. The class given is cell-based, human. How it is done: (§2) It is emphasized that the anti-inflammatory effects were determined by in vitro tests wherein the production of intracellular adhesion molecules (=ICAM) and Prostaglandin E2 (=PGE2) production by the human skin fibroblasts is measured after being induced by the inflammatory modulus phorbyl myristyl acetate (PMA). Effects on basal PGE2 levels in keratinocytes are also measured. A reduction of the levels of ICAM and PGE2 is indicative for the anti-inflammatory effect.
Primary human foreskin fibroblasts at passage 2 (P2) were seeded into 96-well plates at 10000 cells/well and maintained for 24 hours in an atmosphere of 5% carbon dioxide in Dulbeccos Modified Eagles Medium (DMEM) supplemented with 10% foetal calf serum. […] The fibroblasts/media were then analysed as described below immediately or snap frozen in liquid nitrogen and stored at −70° C. for future analysis. The cells were then counted to ensure no effect on cell number.
Volumes of 50 μl culture medium were taken for PGE2 assay after gently shaking the culture plate. PGE2 levels in the medium were determined with a Biotrak PGE2 immunoassay kit (Amersham, UK). The assay is based on the competition between unlabelled PGE2 in the sample and a fixed quantity of horseradish peroxidase labelled PGE2 for a limited amount of fixed PGE2 specific antibody. […]

Assay [3] relates to intracellular adhesion molecules (ICAM). Description: ICAM-1 assay in fibroblasts, basal and PMA-induced. The following applies: FIG. 2. The format is cell-based, human. How it is done:
as §2
as §1, with “PMA represents an external stressor which induces oxidative stress and inflammatory responses in cells.” left out
Media were discarded and cells washed with Dulbecco PBS. […] The soluble ICAM-1 was assessed with commercially available immunoenzymometric assay kit (R&D Systems). Concentrations of ICAM-1 in the samples were determined based on parallelly running standard curve.

Assay [4] has as its system basal PGE2 levels in keratinocytes. Briefly: Keratinocyte PGE2 assay. The settings on record: 0.1 μM and 1 μM, 24 h. The format is cell-based. The source says: The medium was then removed and assayed for the pro-inflammatory PGE2 content by Enzyme-linked immunoassay.

Take `O=C(O)c1cc(O)c(O)c(O)c1` [Gallic acid]: the “Decorin (% of control)” value in the assay on decorin (1 μg / ml) was 136.9 ± 4.2 % of control; in the assay on decorin (2.5 μg / ml), 163.4 ± 6.5 % of control; in the assay on decorin (5 μg / ml) it was 161.8 ± 6.6 % of control. The “decorin levels in fibroblasts” value in the assay on decorin is reported as “can also exert this effect”.
Regarding `O=c1c(-c2ccc(O)cc2)coc2cc(O)cc(O)c12` [genistein], the “decorin levels in fibroblasts” value in the assay on decorin is recorded as “can also exert this effect”.
In the case of `O=C(O[C@@H]1Cc2c(O)cc(O)cc2O[C@@H]1c1cc(O)c(O)c(O)c1)c1cc(O)c(O)c(O)c1` [EGCG, Epigallocatechingallate], in assay [1] (antioxidant alone 10 μM), the ICAM response result is “decrease the ICAM response”. Besides, the “Decorin (% of control)” value in the assay on decorin (1 μg / ml) is given as 167.5 ± 11.8 % of control; in the assay on decorin (2.5 μg / ml), 188.6 ± 9.4 % of control; in the assay with decorin (5 μg / ml), 258.2 ± 6.1 % of control. Also, in the assay with decorin, the “decorin levels in fibroblasts” value is recorded as “can also exert this effect”.
In the case of `O=c1c(O)c(-c2ccc(O)c(O)c2)oc2cc(O)cc(O)c12` [Quercetin], in assay [1] (antioxidant alone 10 μM), the ICAM response result is “decrease the ICAM response”.
Turning to `CCCCCCCCCCC/C=C\CCCCC(=O)O` [Petroselinic acid], the PGE2 response entry in assay [2] (PMA treated cells pre-incubated with 0.1, 1.0, 10 and 100 μM) was “significant decrease”. For the same compound, the “inflammatory response as measured by PGE2 production” value in assay [2] (PMA-challenged fibroblasts, 0.1 μM) is reported as “dramatically reduces”. For the same compound, in assay [3] (PMA-stimulated fibroblasts pre-incubated with 0.1, 1.0, 10 and 100 μM), the “production of ICAM / ICAM response” value was “reduction in ICAM; also recorded: significant decrease”. The “production of ICAM” value in assay [3] (basal condition (control), fibroblasts, 100 μM) was “reduction in ICAM”. Besides, the ICAM response entry in assay [1] (petroselinic acid alone 0.01 μM) was “no effect”. Also, the “basal levels of secreted PGE2” value in assay [4] (FIG. 5) is recorded as “significantly reduce”; in assay [4] (FIG. 5, listed as petroselinic acid), “reduced the basal levels”. Moreover, in the assay with decorin, the “decorin levels in fibroblasts” value is reported as “boost decorin levels”.
Regarding `O=c1c(-c2ccc(O)cc2)coc2cc(O)ccc12` [diadzein], in the assay on decorin, the “decorin levels in fibroblasts” value was “can also exert this effect”.
